Results taken from patent publication US8921267B2, “Safening 6-(trisubstituted phenyl)-4-amino-2-pyridinecarboxylate herbicide injury on cereal crops” (Dow AgroSciences LLC, priority 2008, dated 2014).

Assays:
Type in all cases: in vivo
Conditions in all cases: applied alone
[1] = system: wheat (Triticum aestivum L; TRZAS); assay: Postemergence herbicidal safening, greenhouse, visual injury: wheat
How it was run: (§1)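 Percent visual injury relative to solvent-blank controls, rated 20-22 d after treatment on a 0 (none) to 100 (complete kill) scale. Expected mixture response came from Colby's equation, Expected=A+B−(A×B/100). Sprays contained 1.5% v/v crop oil concentrate at 187 L/ha.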

[2] = system: barley (Hordeum vulgare L; HORVS); assay: Postemergence herbicidal safening, greenhouse, visual injury: barley
How it was run: as §1

[3] = system: cleavers (Galium aparine L; GALAP); assay: Postemergence herbicidal activity, greenhouse, visual injury: cleavers; set-up: key: visual injury, 0–100%: 0 = no injury, 100 = complete kill
How it was run: as §1

[4] = system: kochia (Kochia scoparia L; KCHSC); assay: Postemergence herbicidal activity, greenhouse, visual injury: kochia; set-up: key: % visual injury: 0 = no injury, 100 = complete kill
Method: (§2) Evaluation of Postemergence Herbicidal Safening in Cereal Crops
(§3) Seeds of the desired test plant species were planted in Sun Gro MetroMix® 306 planting mixture, which typically has a pH of 6.0 to 6.8 and an organic matter content of about 30 percent, in plastic pots with a surface area of 103.2 square centimeters (cm^2). When required to ensure good germination and healthy plants, a fungicide treatment and/or other chemical or physical treatment was applied. The plants were grown for 7-36 days (d) in a greenhouse with an approximate 14-hour (h) photoperiod which was maintained at about 18° C. during the day and 17° C. during the night. Nutrients and water were added on a regular basis and supplemental lighting was provided with overhead metal halide 1000-Watt lamps as necessary. The plants were employed for testing when they reached the second or third true leaf stage.
(§4) Weighed amounts of esters (methyl) or salts (TEA [triethylammonium], K [potassium]) of 4-amino-3-chloro-6-(4-chloro-2-fluoro-3-methoxyphenyl)pyridine-2-carboxylic acid (Compound 1) were dissolved in a volume of 97:3 volume/volume (v/v) acetone/dimethylsulfoxide (DMSO) to obtain stock solutions. […] The concentrated stock solutions were diluted with an aqueous mixture of 1.5% v/v of Agri-dex crop oil concentrate to provide the appropriate application rates. Compound requirements are based upon a 12 mL application volume at a rate of 187 liters per hectare (L/ha). Stocks solutions of the safeners were prepared following the same procedure. Spray solutions of the safeners and experimental compound mixtures were prepared by adding the stock solutions to the appropriate amount of dilution solution to form a 12 mL spray solution with active ingredients in two-way combinations. Formulated compounds were applied to the plant material with an overhead Mandel track sprayer equipped with 8002E nozzles calibrated to deliver 187 L/ha over an application area of 0.503 square meters (m^2) at a spray height of 18 inches (43 centimeters (cm)) above average plant canopy. Control plants were sprayed in the same manner with the solvent blank.
(§5) The treated plants and control plants were placed in a greenhouse as described above and watered by sub-irrigation to prevent wash-off of the test compounds. After 20-22 d, the condition of the test plants as compared with that of the control plants was determined visually and scored on a scale of 0 to 100 percent where 0 corresponds to no injury and 100 corresponds to complete kill.
(§6) Colby's equation was used to determine the herbicidal effects expected from the mixtures (Colby, S. R. Calculation of the synergistic and antagonistic response of herbicide combinations. Weeds 1967, 15, 20-22.).
(§7) The following equation was used to calculate the expected activity of mixtures containing two active ingredients, A and B: Expected=A+B−(A×B/100)
(§8) A=observed efficacy of active ingredient A at the same concentration as used in the mixture.
(§9) B=observed efficacy of active ingredient B at the same concentration as used in the mixture.

[5] = system: purple deadnettle (Lamium purpureum L; LAMPU); assay: Postemergence herbicidal activity, greenhouse, visual injury: purple deadnettle; set-up: key: visual injury, 0–100%: 0 = no injury, 100 = complete kill
How it was run: (§10)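 Weeds were grown in MetroMix 306 (pH 6.0–6.8) in a greenhouse at about 18/17 °C day/night with a 14 h photoperiod and sprayed at the second or third true leaf stage. Compound 1 ester or salt plus safener in 1.5% v/v Agri-dex was applied at 187 L/ha. Injury was scored visually at 20-22 d (0–100%), with Colby expected values.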

[6] = system: scented mayweed (Matricaria chamomila L; MATCH); assay: Postemergence herbicidal activity, greenhouse, visual injury: scented mayweed; set-up: key: % visual injury: 0 = no injury, 100 = complete kill
Method: as §2, §3, §4, §5, §6, §7, §8, §9

[7] = system: corn poppy (Papaver rhoeas L; PAPRH); assay: Postemergence herbicidal activity, greenhouse, visual injury: corn poppy
How it was run: as §10

[8] = system: wild buckwheat (Polygonum convolvulus L; POLCO); assay: Postemergence herbicidal activity, greenhouse, visual injury: wild buckwheat
How it was run: as §1

[9] = system: Russian thistle (Salsola iberica L; SASKR); assay: Postemergence herbicidal activity, greenhouse, visual injury: Russian thistle; set-up: key: visual injury, 0–100%: 0 = no injury, 100 = complete kill
How it was run: as §1

[10] = system: chickweed (Stellaria media L; STEME); assay: Postemergence herbicidal activity, greenhouse, visual injury: chickweed; set-up: key: visual injury, 0–100%: 0 = no injury, 100 = complete kill
How it was run: as §1

[11] = system: bird's-eye speedwell (Veronica persica L; VERPE); assay: Postemergence herbicidal activity, greenhouse, visual injury: bird's-eye speedwell; set-up: key: visual injury, 0–100%: 0 = no injury, 100 = complete kill
How it was run: as §1

[12] = system: wild pansy (Viola tricolor L; VIOTR); assay: Postemergence herbicidal activity, greenhouse, visual injury: wild pansy; set-up: key: visual injury, 0–100%: 0 = no injury, 100 = complete kill
How it was run: as §10

## N#C/C(=N\OCC1OCCO1)c1ccccc1 [Oxabetrinil]
[1]; 17.5 g/ha
  TRZAS Ob: 0%
[1]; 35 g/ha
  TRZAS Ob: 0%
[1]; 70 g/ha
  TRZAS Ob: 0%
[1]; 140 g/ha
  TRZAS Ob: 0%
[2]; 17.5 g/ha
  HORVS Ob: 0%
[2]; 35 g/ha
  HORVS Ob: 0%
[2]; 70 g/ha
  HORVS Ob: 0%
[2]; 140 g/ha
  HORVS Ob: 0%
[3]; 17.5 g/ha
  GALAP Ob: 0
[3]; 35 g/ha
  GALAP Ob: 0
[3]; 70 g/ha
  GALAP Ob: 0
[3]; 140 g/ha
  GALAP Ob: 0
[4]; 17.5 g/ha
  KCHSC Ob: 0
[4]; 35 g/ha
  KCHSC Ob: 0
[4]; 70 g/ha
  KCHSC Ob: 0
[4]; 140 g/ha
  KCHSC Ob: 0
[5]; 17.5 g/ha
  LAMPU Ob: 0
[5]; 35 g/ha
  LAMPU Ob: 0
[5]; 70 g/ha
  LAMPU Ob: 0
[5]; 140 g/ha
  LAMPU Ob: 0
[6]; 17.5 g/ha
  MATCH Ob: 0
[6]; 35 g/ha
  MATCH Ob: 0
[6]; 70 g/ha
  MATCH Ob: 0
[6]; 140 g/ha
  MATCH Ob: 0
[7]; 17.5 g/ha
  PAPRH Ob: 0
[7]; 35 g/ha
  PAPRH Ob: 0
[7]; 70 g/ha
  PAPRH Ob: 0
[7]; 140 g/ha
  PAPRH Ob: 0
[8]; 17.5 g/ha
  POLCO Ob: 0
[8]; 35 g/ha
  POLCO Ob: 0
[8]; 70 g/ha
  POLCO Ob: 0
[8]; 140 g/ha
  POLCO Ob: 0
[9]; 17.5 g/ha
  SASKR Ob: 0
[9]; 35 g/ha
  SASKR Ob: 0
[9]; 70 g/ha
  SASKR Ob: 0
[9]; 140 g/ha
  SASKR Ob: 0
[10]; 17.5 g/ha
  STEME Ob: 0
[10]; 35 g/ha
  STEME Ob: 0
[10]; 70 g/ha
  STEME Ob: 0
[10]; 140 g/ha
  STEME Ob: 0
[11]; 17.5 g/ha
  VERPE Ob: 0
[11]; 35 g/ha
  VERPE Ob: 0
[11]; 70 g/ha
  VERPE Ob: 0
[11]; 140 g/ha
  VERPE Ob: 0
[12]; 17.5 g/ha
  VIOTR Ob: 0
[12]; 35 g/ha
  VIOTR Ob: 0
[12]; 70 g/ha
  VIOTR Ob: 0
[12]; 140 g/ha
  VIOTR Ob: 0
